Source: patent US20250152592A1, “PHARMACEUTICAL COMPOSITION COMPRISING ALLOPURINOL, FEBUXOSTAT OR PHARMACEUTICALLY ACCEPTABLE SALT THEREOF FOR PREVENTION OR TREATMENT OF CHRONIC KIDNEY DISEASE IN SUBJECT HAVING HIGH SERUM URIC ACID CONCENTRATION” (Indream Healthcare Inc., priority 2022, published 2025)

Experiments:
[1] = tested on: patients with gout and a history of major cardiovascular diseases; assay: eGFR over time by average serum uric acid concentration, analysis of clinical trial data; format: in vivo, human; details: for eGFR Mean (95% CI): allopurinol group
Experimental: In order to evaluate non-inferiority of febuxostat to allopurinol related to cardiovascular risk, a clinical trial was designed and proceeded.
A multicenter, randomized, double-blind non-inferiority trial was performed. The details of the clinical trial design have been published previously. An independent data and safety monitoring committee with access to unblinded data monitored the clinical trial. The statistical analysis for the data and the safety monitoring committee was performed by an independent statistical group (WebbWrites).
The patients were regarded as having a history of major cardiovascular diseases, if they had myocardial infarction, hospitalization for unstable angina, stroke, hospitalization for transient ischemic attack, peripheral vascular disease, or diabetes mellitus symptoms. All participants provided a prior informed consent form.
The patients were randomly assigned so that they received febuxostat or allopurinol administered once a day in a double-blind manner. The randomization was stratified according to the estimated creatinine clearance at baseline (patient group having an estimated creatinine clearance ≥60 ml per minute vs patient group having an estimated creatinine clearance ≥30 and <60 ml per minute).
The dose of allopurinol was modified according to a kidney function. The patients with the estimated creatinine clearance 60 ml or more per minute i) initially received allopurinol at a dose of 300 mg once a day, and the dose was increased in 100 mg increments monthly until the patient had the serum uric acid concentration of less than 6.0 mg per deciliter or the dosage of allopurinol was 600 mg once a day. The patient having the estimated creatinine clearance of 30 ml or more and less than 60 ml per minute initially received 200 mg of allopurinol, and then the dose was increased in 100 mg increments until the patient either had the serum uric acid concentration of less than 6.0 mg per deciliter or was receiving the allopurinol dose of 400 mg once daily.
The dose of febuxostat was not modified according to the kidney function. The patients who were randomly assigned to receive febuxostat initially received 40 mg once a daily, and continued to receive the same dosage if the serum uric acid concentration was less than 6.0 mg per deciliter after 2 weeks of the treatment. If the serum uric acid concentration was higher than 6.0 mg per deciliter at 2nd week visit, the dose of febuxostat was increased to 80 mg once daily for the remainder of the trial.
During the period, the administration of a double-blind and double-dummy trial medications was guided by an interactive voice-response system which was a procedure to prevent unblinding for the patients whose dose was not adjusted. After completing dose adjustment, the urate level was concealed from the investigators, and the treatment was managed throughout the trial using the interactive voice-response system.
Outpatient visits were conducted according to the following schedule: during screening and randomization, and at 2, 4, 6, 8, 10, 12, and 24 weeks after the randomization, and every 6 months during the subsequent years of the trial. The patients with reduced kidney function or, the patients aged 65 years or older at randomization were visited at 9 and 15 months for monitoring the serum chemical profile. If the patient agreed to be monitored, but would not return for study visit, telephone contact was made, but such method was not preferred or recommended.
In order to confirm the effect of allopurinol and febuxostat on the kidney disease, the data obtained in the clinical trial described above was analyzed.

[2] = cited from earlier work

In the case of `Oc1ncnc2[nH]ncc12` [allopurinol], the “eGFR Mean (95% CI)” value ([1]; No congestive cardiac failure history, Average UA <6, Baseline) is reported as 66.85 (65.82-67.88) ml/min/1.73 m^2, the “eGFR Mean (95% CI)” value ([1]; No congestive cardiac failure history, Average UA <6, Month 3) is reported as 67.32 (66.24-68.40) ml/min/1.73 m^2 and the “eGFR Mean (95% CI)” value ([1]; No congestive cardiac failure history, Average UA <6, Month 12) is reported as 68.74 (67.63-69.86) ml/min/1.73 m^2. The “eGFR Mean (95% CI)” value ([1]; No congestive cardiac failure history, Average UA <6, Month 18) was 68.64 (67.39-69.88) ml/min/1.73 m^2, the “eGFR Mean (95% CI)” value ([1]; No congestive cardiac failure history, Average UA <6, Month 24) was 68.73 (67.42-70.03) ml/min/1.73 m^2 and the “eGFR Mean (95% CI)” value ([1]; No congestive cardiac failure history, Average UA <6, Month 30) was 69.45 (68.01-70.89) ml/min/1.73 m^2. For the same molecule, the “eGFR Mean (95% CI)” value ([1]; No congestive cardiac failure history, Average UA <6, Month 36) was 68.02 (66.49-69.55) ml/min/1.73 m^2, the “eGFR Mean (95% CI)” value ([1]; No congestive cardiac failure history, Average UA <6, Month 42) was 67.59 (65.93-69.25) ml/min/1.73 m^2 and the “eGFR Mean (95% CI)” value ([1]; No congestive cardiac failure history, Average UA <6, Month 48) was 68.44 (66.56-70.31) ml/min/1.73 m^2. For the same molecule, the “eGFR Mean (95% CI)” value ([1]; No congestive cardiac failure history, Average UA <6, Month 54) was 67.90 (65.79-70.00) ml/min/1.73 m^2, the “eGFR Mean (95% CI)” value ([1]; No congestive cardiac failure history, Average UA <6, Month 60) was 68.53 (66.05-71.01) ml/min/1.73 m^2 and the “eGFR Mean (95% CI)” value ([1]; No congestive cardiac failure history, Average UA <6, Week 2) was 66.55 (65.48-67.62) ml/min/1.73 m^2. The “eGFR Mean (95% CI)” value ([1]; No congestive cardiac failure history, Average UA ≥6, Baseline) was 66.51 (64.92-68.09) ml/min/1.73 m^2, the “eGFR Mean (95% CI)” value ([1]; No congestive cardiac failure history, Average UA ≥6, Month 12) was 66.77 (65.07-68.46) ml/min/1.73 m^2 and the “eGFR Mean (95% CI)” value ([1]; No congestive cardiac failure history, Average UA ≥6, Month 18) was 66.07 (64.15-67.99) ml/min/1.73 m^2. For the same molecule, the “eGFR Mean (95% CI)” value ([1]; No congestive cardiac failure history, Average UA ≥6, Month 24) was 65.54 (63.37-67.72) ml/min/1.73 m^2, the “eGFR Mean (95% CI)” value ([1]; No congestive cardiac failure history, Average UA ≥6, Month 30) was 65.30 (62.89-67.70) ml/min/1.73 m^2 and the “eGFR Mean (95% CI)” value ([1]; No congestive cardiac failure history, Average UA ≥6, Month 36) was 65.27 (62.40-68.13) ml/min/1.73 m^2. For the same molecule, the “eGFR Mean (95% CI)” value ([1]; No congestive cardiac failure history, Average UA ≥6, Month 42) was 63.38 (60.35-66.41) ml/min/1.73 m^2, the “eGFR Mean (95% CI)” value ([1]; No congestive cardiac failure history, Average UA ≥6, Month 48) was 63.38 (59.80-66.95) ml/min/1.73 m^2 and the “eGFR Mean (95% CI)” value ([1]; No congestive cardiac failure history, Average UA ≥6, Month 54) was 66.44 (62.69-70.18) ml/min/1.73 m^2. The “eGFR Mean (95% CI)” value ([1]; No congestive cardiac failure history, Average UA ≥6, Month 60) was 63.14 (59.01-67.28) ml/min/1.73 m^2, the “eGFR Mean (95% CI)” value ([1]; No congestive cardiac failure history, Average UA ≥6, Week 2) was 66.92 (65.28-68.56) ml/min/1.73 m^2 and the “eGFR Mean (95% CI)” value ([1]; SBP <130, Average UA <6, Baseline) was 65.08 (63.67-66.50) ml/min/1.73 m^2. The “eGFR Mean (95% CI)” value ([1]; SBP <130, Average UA <6, Month 3) was 66.19 (64.73-67.66) ml/min/1.73 m^2, the “eGFR Mean (95% CI)” value ([1]; SBP <130, Average UA <6, Month 6) was 66.44 (64.96-67.92) ml/min/1.73 m^2 and the “eGFR Mean (95% CI)” value ([1]; SBP <130, Average UA <6, Month 12) was 67.55 (66.04-69.06) ml/min/1.73 m^2. For the same molecule, the “eGFR Mean (95% CI)” value ([1]; SBP <130, Average UA <6, Month 18) was 67.41 (65.73-69.08) ml/min/1.73 m^2, the “eGFR Mean (95% CI)” value ([1]; SBP <130, Average UA <6, Month 24) was 67.26 (65.46-69.07) ml/min/1.73 m^2 and the “eGFR Mean (95% CI)” value ([1]; SBP <130, Average UA <6, Month 30) was 68.14 (66.20-70.08) ml/min/1.73 m^2. The “eGFR Mean (95% CI)” value ([1]; SBP <130, Average UA <6, Month 36) was 67.41 (65.30-69.51) ml/min/1.73 m^2, the “eGFR Mean (95% CI)” value ([1]; SBP <130, Average UA <6, Month 42) was 67.67 (65.45-69.89) ml/min/1.73 m^2 and the “eGFR Mean (95% CI)” value ([1]; SBP <130, Average UA <6, Month 48) was 67.55 (64.98-70.13) ml/min/1.73 m^2. The “eGFR Mean (95% CI)” value ([1]; SBP <130, Average UA <6, Month 54) was 67.54 (64.81-70.27) ml/min/1.73 m^2, the “eGFR Mean (95% CI)” value ([1]; SBP <130, Average UA <6, Month 60) was 66.85 (63.63-70.06) ml/min/1.73 m^2 and the “eGFR Mean (95% CI)” value ([1]; SBP <130, Average UA <6, Week 2) was 65.12 (63.70-66.55) ml/min/1.73 m^2. The “eGFR Mean (95% CI)” value ([1]; SBP <130, Average UA ≥6, Baseline) was 61.00 (58.76-63.25) ml/min/1.73 m^2, the “eGFR Mean (95% CI)” value ([1]; SBP <130, Average UA ≥6, Month 3) was 62.77 (60.42-65.12) ml/min/1.73 m^2 and the “eGFR Mean (95% CI)” value ([1]; SBP <130, Average UA ≥6, Month 6) was 62.65 (60.33-64.97) ml/min/1.73 m^2. The “eGFR Mean (95% CI)” value ([1]; SBP <130, Average UA ≥6, Month 12) was 62.21 (59.86-64.55) ml/min/1.73 m^2, the “eGFR Mean (95% CI)” value ([1]; SBP <130, Average UA ≥6, Month 18) was 62.34 (59.64-65.04) ml/min/1.73 m^2 and the “eGFR Mean (95% CI)” value ([1]; SBP <130, Average UA ≥6, Month 24) was 60.72 (57.61-63.83) ml/min/1.73 m^2. The “eGFR Mean (95% CI)” value ([1]; SBP <130, Average UA ≥6, Month 30) was 62.43 (59.06-65.81) ml/min/1.73 m^2, the “eGFR Mean (95% CI)” value ([1]; SBP <130, Average UA ≥6, Month 36) was 61.08 (57.19-64.97) ml/min/1.73 m^2 and the “eGFR Mean (95% CI)” value ([1]; SBP <130, Average UA ≥6, Month 42) was 60.98 (56.66-65.31) ml/min/1.73 m^2. The “eGFR Mean (95% CI)” value ([1]; SBP <130, Average UA ≥6, Month 48) was 64.66 (59.55-69.76) ml/min/1.73 m^2, the “eGFR Mean (95% CI)” value ([1]; SBP <130, Average UA ≥6, Month 54) was 64.80 (59.14-70.46) ml/min/1.73 m^2 and the “eGFR Mean (95% CI)” value ([1]; SBP <130, Average UA ≥6, Month 60) was 65.01 (58.65-71.37) ml/min/1.73 m^2. For the same molecule, the “eGFR Mean (95% CI)” value ([1]; SBP <130, Average UA ≥6, Week 2) was 62.24 (60.01-64.47) ml/min/1.73 m^2, the “prevention or treatment of chronic kidney disease when serum uric acid maintained below 6” value ([1]; blood glucose ≥126 mg/dl, DBP ≤80 mm/Hg, SBP ≤130 mm/Hg, or no congestive cardiac failure) was “effectively prevented or treated” and the drug-induced nephrotoxicity ([2]; Am Fam Physician. 2008 September) was “causes acute interstitial nephritis”. The “effect on kidney function” value ([2]; Kaohsiung J Med Sci. 2005 May;21(5):228-32) was “worsens kidney function” and the “acute renal failure reported more often” value ([2]; post-marketing study, Arthritis Research & Therapy volume 21, Article number: 229 (2019)) was 3.3 times.
